Data from US8367873B2, “Phenyl-substituted bicyclooctane-1,3-dione derivatives” (Bayer Cropscience AG, priority 2008, dated 2013).

Key:
Assay type in all cases: in vivo
Alopecurus myosuroides [1] = test: Herbicidal pre-emergence action; conditions: pre-emergence method, 80 g/ha, greenhouse, visual assessment vs untreated controls
Excerpt: (§1) Seeds of monocotylidonous and dicotylidonous weed and crop plants are placed in sandy loam in wood fibre pots and covered with soil. The test compounds, formulated in the form of wettable powders (WP), are then, as an aqueous suspension with a water application rate of 600 l/ha (converted), with 0.2% of wetting agent added, applied to the surface of the covering soil in different amounts.
(§2) After the treatment, the pots are placed in a greenhouse and kept under good growth conditions for the test plants. The visual assessment of the emergence damage on the test plants is carried out after a trial period of three weeks by comparison with the untreated controls (herbicidal effect in percent: 100% effect=the plants have died, 0% effect=like control plants).

Echinocloa crus-galli [2] = test: Herbicidal pre-emergence action; conditions: pre-emergence method, 80 g/ha, greenhouse, visual assessment vs untreated controls
Excerpt: as §1, §2

Lolium multiflorum [3] = test: Herbicidal pre-emergence action; conditions: pre-emergence method, 80 g/ha, greenhouse, visual assessment vs untreated controls
Excerpt: as §1, §2

Setaria viridis [4] = test: Herbicidal pre-emergence action; conditions: pre-emergence method, 80 g/ha, greenhouse, visual assessment vs untreated controls
Excerpt: as §1, §2

Alopecurus myosuroides [5] = test: Herbicidal post-emergence action; conditions: post-emergence method; for herbicidal effect against ALOMY (Alopecurus myosuroides): 80 g/ha
Outline: (§3)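 One-leaf-stage greenhouse plants sprayed with WP at graded amounts (600 l/ha, 0.2% wetting agent); ~3 wk later, visual % effect rated vs untreated controls, 100% = dead, 0% = like control.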

Echinocloa crus-galli [6] = test: Herbicidal post-emergence action; conditions: post-emergence method; for herbicidal effect against ECHCG (Echinochloa crus-galli): 80 g/ha
Outline: as §3

Lolium multiflorum [7] = test: Herbicidal post-emergence action; conditions: post-emergence method; for herbicidal effect against LOLMU (Lolium multiflorum): 80 g/ha
Outline: as §3

Setaria viridis [8] = test: Herbicidal post-emergence action; conditions: post-emergence method; for herbicidal effect against SETVI (Setaria viridis): 80 g/ha
Outline: as §3

[9] = test system: monocotylidonous and dicotylidonous weed and crop plants; test: Herbicidal pre-emergence action (other test plants); conditions: pre-emergence method, 80 g/ha, greenhouse, visual assessment vs untreated controls
Excerpt: as §1, §2

[10] = test system: monocotylidonous and dicotylidonous weed and crop plants; test: Herbicidal post-emergence action (other test plants); conditions: post-emergence method; for herbicidal effect against AVEFA (Avena fatua): 80 g/ha
Outline: as §3

CCc1cc(C)cc(CC)c1C1=C([O-])C2CC3(CC2C1=O)OCC=CCO3.[Na+] (stereo not drawn) [I-f-12]
herbicidal effect ALOMY (Alopecurus myosuroides [1]): 100% | herbicidal effect ECHCG (Echinocloa crus-galli [2]): 100% | herbicidal effect LOLMU (Lolium multiflorum [3]): 70% | herbicidal effect SETVI (Setaria viridis [4]): 90% | herbicidal effect against ALOMY (Alopecurus myosuroides) (Alopecurus myosuroides [5]): 100% | herbicidal effect against ECHCG (Echinochloa crus-galli) (Echinocloa crus-galli [6]): 100% | herbicidal effect against LOLMU (Lolium multiflorum) (Lolium multiflorum [7]): 100% | herbicidal effect against SETVI (Setaria viridis) (Setaria viridis [8]): 100% | herbicidal effect AVEFA [9]: 70% | herbicidal effect against AVEFA (Avena fatua) [10]: 100%

CCc1cc(C)cc(CC)c1C1=C([O-])C2CC3(CC2C1=O)OCC(OC)CO3.[Na+] (stereo not drawn) [I-f-13]
herbicidal effect ALOMY (Alopecurus myosuroides [1]): 100% | herbicidal effect ECHCG (Echinocloa crus-galli [2]): 100% | herbicidal effect LOLMU (Lolium multiflorum [3]): 100% | herbicidal effect SETVI (Setaria viridis [4]): 90% | herbicidal effect against ALOMY (Alopecurus myosuroides) (Alopecurus myosuroides [5]): 100% | herbicidal effect against ECHCG (Echinochloa crus-galli) (Echinocloa crus-galli [6]): 100% | herbicidal effect against LOLMU (Lolium multiflorum) (Lolium multiflorum [7]): 100% | herbicidal effect against SETVI (Setaria viridis) (Setaria viridis [8]): 100% | herbicidal effect AVEFA [9]: 0% | herbicidal effect against AVEFA (Avena fatua) [10]: 100%

C=C1COC2(CC3C(=O)C(c4c(CC)cc(C)cc4CC)=C([O-])C3C2)OC1.[Na+] (stereo not drawn) [I-f-20]
herbicidal effect ALOMY (Alopecurus myosuroides [1]): 100% | herbicidal effect ECHCG (Echinocloa crus-galli [2]): 100% | herbicidal effect LOLMU (Lolium multiflorum [3]): 100% | herbicidal effect SETVI (Setaria viridis [4]): 100% | herbicidal effect against ALOMY (Alopecurus myosuroides) (Alopecurus myosuroides [5]): 100% | herbicidal effect against ECHCG (Echinochloa crus-galli) (Echinocloa crus-galli [6]): 100% | herbicidal effect against LOLMU (Lolium multiflorum) (Lolium multiflorum [7]): 100% | herbicidal effect against SETVI (Setaria viridis) (Setaria viridis [8]): 100% | herbicidal effect AVEFA [9]: 70% | herbicidal effect against AVEFA (Avena fatua) [10]: 100%

CCc1cc(C)cc(CC)c1C1=C(O)C2CC3(CC2C1=O)OC(C)CC(C)O3 (mixture of isomers) [I-a-12]
herbicidal effect ALOMY (Alopecurus myosuroides [1]): 100% | herbicidal effect ECHCG (Echinocloa crus-galli [2]): 100% | herbicidal effect LOLMU (Lolium multiflorum [3]): 100% | herbicidal effect SETVI (Setaria viridis [4]): 90% | herbicidal effect against ALOMY (Alopecurus myosuroides) (Alopecurus myosuroides [5]): 100% | herbicidal effect against ECHCG (Echinochloa crus-galli) (Echinocloa crus-galli [6]): 100% | herbicidal effect against LOLMU (Lolium multiflorum) (Lolium multiflorum [7]): 100% | herbicidal effect against SETVI (Setaria viridis) (Setaria viridis [8]): 100% | herbicidal effect AVEFA [9]: 80% | herbicidal effect against AVEFA (Avena fatua) [10]: 100%

CCc1cc(C)cc(CC)c1C1=C(OC(=O)C(C)C)C2CC3(COC(C)(C)O3)CC2C1=O (stereo not drawn) [I-b-7]
herbicidal effect ALOMY (Alopecurus myosuroides [1]): 100% | herbicidal effect ECHCG (Echinocloa crus-galli [2]): 60% | herbicidal effect LOLMU (Lolium multiflorum [3]): 100% | herbicidal effect SETVI (Setaria viridis [4]): 70% | herbicidal effect against ALOMY (Alopecurus myosuroides) (Alopecurus myosuroides [5]): 90% | herbicidal effect against ECHCG (Echinochloa crus-galli) (Echinocloa crus-galli [6]): 100% | herbicidal effect against LOLMU (Lolium multiflorum) (Lolium multiflorum [7]): 100% | herbicidal effect against SETVI (Setaria viridis) (Setaria viridis [8]): 90% | herbicidal effect AVEFA [9]: 80% | herbicidal effect against AVEFA (Avena fatua) [10]: 100%

C=C1C[C@@H]2C(O)=C(c3c(CC)cc(C)cc3CC)C(=O)[C@@H]2C1 (stereo in doubt) [I-a-5, 2-(2,6-diethyl-4-methylphenyl)-3-hydroxy-5-methylidene-4,5,6,6a-tetrahydropentalen-1(3 aH)-one]
herbicidal effect ALOMY (Alopecurus myosuroides [1]): 60% | herbicidal effect ECHCG (Echinocloa crus-galli [2]): 80% | herbicidal effect LOLMU (Lolium multiflorum [3]): 90% | herbicidal effect SETVI (Setaria viridis [4]): 70% | pest or weed control at 80 g/ha (Alopecurus myosuroides [5]; Alopecurus myosuroides, 504 h, read-out: herbicidal effect against ALOMY (Alopecurus myosuroides)): 60% | pest or weed control at 80 g/ha (Echinocloa crus-galli [6]; Echinochloa crus-galli, 504 h, read-out: herbicidal effect against ECHCG (Echinochloa crus-galli)): 100% | pest or weed control at 80 g/ha (Lolium multiflorum [7]; Lolium multiflorum, 504 h, read-out: herbicidal effect against LOLMU (Lolium multiflorum)): 90% | pest or weed control at 80 g/ha (Setaria viridis [8]; Setaria viridis, 504 h, read-out: herbicidal effect against SETVI (Setaria viridis)): 100% | herbicidal effect AVEFA [9]: 60% | pest or weed control at 80 g/ha ([10]; 504 h, Avena fatua, read-out: herbicidal effect against AVEFA (Avena fatua)): 50%

CCC(C)(C)C(=O)OC1=C(c2c(C)cc(C)cc2C)C(=O)C2CC3(COC(C)(C)O3)CC12 (mixture of isomers) [I-b-45]
herbicidal effect ALOMY (Alopecurus myosuroides [1]): 90% | herbicidal effect ECHCG (Echinocloa crus-galli [2]): 20% | herbicidal effect LOLMU (Lolium multiflorum [3]): 60% | herbicidal effect SETVI (Setaria viridis [4]): 30% | herbicidal effect against ALOMY (Alopecurus myosuroides) (Alopecurus myosuroides [5]): 80% | herbicidal effect against ECHCG (Echinochloa crus-galli) (Echinocloa crus-galli [6]): 90% | herbicidal effect against LOLMU (Lolium multiflorum) (Lolium multiflorum [7]): 90% | herbicidal effect against SETVI (Setaria viridis) (Setaria viridis [8]): 40% | herbicidal effect AVEFA [9]: 40% | herbicidal effect against AVEFA (Avena fatua) [10]: 0%

COc1cc(C)cc(C)c1C1=C([O-])C2CC3(CC2C1=O)OCC=CCO3.[Na+] (stereo not drawn) [I-f-7]
herbicidal effect ALOMY (Alopecurus myosuroides [1]): 100% | herbicidal effect ECHCG (Echinocloa crus-galli [2]): 80% | herbicidal effect LOLMU (Lolium multiflorum [3]): 100% | herbicidal effect SETVI (Setaria viridis [4]): 90% | herbicidal effect against ALOMY (Alopecurus myosuroides) (Alopecurus myosuroides [5]): 100% | herbicidal effect against ECHCG (Echinochloa crus-galli) (Echinocloa crus-galli [6]): 100% | herbicidal effect against LOLMU (Lolium multiflorum) (Lolium multiflorum [7]): 100% | herbicidal effect against SETVI (Setaria viridis) (Setaria viridis [8]): 100% | herbicidal effect AVEFA [9]: 70% | herbicidal effect against AVEFA (Avena fatua) [10]: 100%

CCOC(=O)OC1=C(c2c(C)cc(C)cc2C)C(=O)C2CC3(CC12)OCCCCO3 (racemic) [I-c-50]
herbicidal effect ALOMY (Alopecurus myosuroides [1]): 30% | herbicidal effect ECHCG (Echinocloa crus-galli [2]): 0% | herbicidal effect LOLMU (Lolium multiflorum [3]): 100% | herbicidal effect SETVI (Setaria viridis [4]): 0% | herbicidal effect against ALOMY (Alopecurus myosuroides) (Alopecurus myosuroides [5]): 60% | herbicidal effect against ECHCG (Echinochloa crus-galli) (Echinocloa crus-galli [6]): 80% | herbicidal effect against LOLMU (Lolium multiflorum) (Lolium multiflorum [7]): 100% | herbicidal effect against SETVI (Setaria viridis) (Setaria viridis [8]): 80% | herbicidal effect AVEFA [9]: 0% | herbicidal effect against AVEFA (Avena fatua) [10]: 0%

CCc1cc(C)cc(CC)c1C1=C(OC(C)=O)C2CC3(CC2C1=O)OCCCO3 (stereo not drawn) [I-b-23]
herbicidal effect ALOMY (Alopecurus myosuroides [1]): 90% | herbicidal effect ECHCG (Echinocloa crus-galli [2]): 100% | herbicidal effect LOLMU (Lolium multiflorum [3]): 100% | herbicidal effect SETVI (Setaria viridis [4]): 50% | herbicidal effect against ALOMY (Alopecurus myosuroides) (Alopecurus myosuroides [5]): 100% | herbicidal effect against ECHCG (Echinochloa crus-galli) (Echinocloa crus-galli [6]): 100% | herbicidal effect against LOLMU (Lolium multiflorum) (Lolium multiflorum [7]): 100% | herbicidal effect against SETVI (Setaria viridis) (Setaria viridis [8]): 100% | herbicidal effect AVEFA [9]: 70% | herbicidal effect against AVEFA (Avena fatua) [10]: 100%

C#CCON=C1CC2C(=O)C(c3c(CC)cc(C)cc3CC)=C(OC(=O)OCC)C2C1 (stereo not drawn) [I-c-41]
herbicidal effect ALOMY (Alopecurus myosuroides [1]): 90% | herbicidal effect ECHCG (Echinocloa crus-galli [2]): 60% | herbicidal effect LOLMU (Lolium multiflorum [3]): 100% | herbicidal effect SETVI (Setaria viridis [4]): 40% | herbicidal effect against ALOMY (Alopecurus myosuroides) (Alopecurus myosuroides [5]): 100% | herbicidal effect against ECHCG (Echinochloa crus-galli) (Echinocloa crus-galli [6]): 100% | herbicidal effect against LOLMU (Lolium multiflorum) (Lolium multiflorum [7]): 100% | herbicidal effect against SETVI (Setaria viridis) (Setaria viridis [8]): 20% | herbicidal effect AVEFA [9]: 40% | herbicidal effect against AVEFA (Avena fatua) [10]: 80%

C=C1CC2C(=O)C(c3c(C)cc(C)cc3OC)=C(OC(=O)C(C)C)C2C1 (stereo not drawn) [I-b-62]
herbicidal effect ALOMY (Alopecurus myosuroides [1]): 50% | herbicidal effect ECHCG (Echinocloa crus-galli [2]): 70% | herbicidal effect LOLMU (Lolium multiflorum [3]): 70% | herbicidal effect SETVI (Setaria viridis [4]): 80% | herbicidal effect against ALOMY (Alopecurus myosuroides) (Alopecurus myosuroides [5]): 30% | herbicidal effect against ECHCG (Echinochloa crus-galli) (Echinocloa crus-galli [6]): 100% | herbicidal effect against LOLMU (Lolium multiflorum) (Lolium multiflorum [7]): 90% | herbicidal effect against SETVI (Setaria viridis) (Setaria viridis [8]): 90% | herbicidal effect AVEFA [9]: 40% | herbicidal effect against AVEFA (Avena fatua) [10]: 0%

CCOC(=O)OC1=C(c2c(C)cc(C)cc2CC)C(=O)C2CC3(CC12)OCCO3 (racemic) [I-c-71]
herbicidal effect ALOMY (Alopecurus myosuroides [1]): 70% | herbicidal effect ECHCG (Echinocloa crus-galli [2]): 100% | herbicidal effect LOLMU (Lolium multiflorum [3]): 100% | herbicidal effect SETVI (Setaria viridis [4]): 90% | herbicidal effect against ALOMY (Alopecurus myosuroides) (Alopecurus myosuroides [5]): 80% | herbicidal effect against LOLMU (Lolium multiflorum) (Lolium multiflorum [7]): 100% | herbicidal effect against SETVI (Setaria viridis) (Setaria viridis [8]): 100% | herbicidal effect AVEFA [9]: 70% | herbicidal effect against AVEFA (Avena fatua) [10]: 90%
